How the values were obtained:
BTK [1] = target: T1, BTK (Homo sapiens (Human), UniProt Q06187); assay: In Vitro BTK Kinase Assay: BTK-POLYGAT-LS ASSAY; type: biochemical; details: ATP 10 μM, polyGAT 100 nM, BTK 0.25 nM, 30 minutes
Procedure: The purpose of the BTK in vitro assay is to determine compound potency against BTK through the measurement of IC50. […] The BTK kinase reaction was done in a black 96 well plate (costar 3694). For a typical assay, a 24 μL aliquot of a ATP/peptide master mix (final concentration; ATP 10 μM, polyGAT 100 nM) in kinase buffer (10 mM Tris-HCl pH 7.5, 10 mM MgCl2, 200 μM […], 5 mM DTT, 0.01% Triton X-100, and 0.2 mg/ml casein) is added to each well. Next, […] of a 4-fold, 40× compound titration in 100% DMSO solvent is added, followed by adding 15 μL of BTK enzyme mix in 1× kinase buffer (with a final concentration of 0.25 nM). The assay is incubated for 30 minutes before being stopped with […] of a 50 mM EDTA solution. Aliquots (5 μL) of the kinase reaction are transferred to a low volume white 384 well plate (Coming 3674), and […] of a 2× detection buffer (Invitrogen PV3574, with 4 nM Tb-PY20 antibody, Invitrogen PV3552) is added. The plate is covered and incubated for 45 minutes at room temperature. Time resolved fluorescence (TRF) on Molecular Devices M5 (332 nm excitation; 488 nm emission; 518 nm fluorescein emission) is measured.

BTK [2] = target: T1, BTK; assay: In Vitro PD Assay in Human Whole Blood (pBTK assay); type: cell-based; details: 37° C. for 30 min, 50% inhibition of ECL signal
Procedure: Human heparinized venous blood was purchased from Bioreclamation, Inc. or SeraCare Life Sciences and shipped overnight. Whole blood was aliquoted into 96-well plate and “spiked” with serial dilutions of test compound in DMSO or with DMSO without drug. The final concentration of DMSO in all wells was 0.1%. The plate was incubated at 37° C. for 30 min. Lysis buffer containing protease and phosphatase inhibitors was added to the drug-containing samples and one of the DMSO-only samples (+PPi, high control), while lysis buffer containing protease inhibitors was added to the other DMSO-only samples (−PPi, low control). All of the lysed whole blood samples were subjected to the total BTK capture and phosphotyrosine detection method described in US20160311802, incorporated herein by reference.

T1 sequence (Q06187 whole entry): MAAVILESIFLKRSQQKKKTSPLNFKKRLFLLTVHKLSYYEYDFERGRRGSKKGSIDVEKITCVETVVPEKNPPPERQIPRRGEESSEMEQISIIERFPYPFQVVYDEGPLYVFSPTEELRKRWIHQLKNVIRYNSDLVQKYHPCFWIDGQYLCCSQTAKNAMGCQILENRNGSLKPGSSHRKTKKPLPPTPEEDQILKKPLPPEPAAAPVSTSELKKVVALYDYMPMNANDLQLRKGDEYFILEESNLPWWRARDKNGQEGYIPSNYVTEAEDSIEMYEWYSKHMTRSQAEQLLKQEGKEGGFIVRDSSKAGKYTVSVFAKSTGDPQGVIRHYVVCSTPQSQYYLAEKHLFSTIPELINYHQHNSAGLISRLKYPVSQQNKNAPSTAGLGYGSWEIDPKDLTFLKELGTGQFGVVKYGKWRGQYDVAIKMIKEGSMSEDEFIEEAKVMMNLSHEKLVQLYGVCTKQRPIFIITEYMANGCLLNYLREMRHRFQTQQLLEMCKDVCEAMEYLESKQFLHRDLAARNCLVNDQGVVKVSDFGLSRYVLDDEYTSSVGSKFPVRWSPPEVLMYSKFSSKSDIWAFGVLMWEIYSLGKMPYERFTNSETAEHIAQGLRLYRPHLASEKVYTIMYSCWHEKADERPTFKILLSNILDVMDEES

| SMILES | IC50 (BTK [1]) | IC50 (BTK [2]) |
| --- | --- | --- |
| CC(C)(C)c1noc(C(=O)N[C@@H]2CCCCc3cc(-c4ccnc(NC(=O)[C@@H]5[C@@H]6COC[C@@H]65)c4)ccc32)n1 [Compound 46, N-((R)-2-(2-((1R,5S,6s)-3-oxabicyclo[3.1.0]hexane-6-carboxamido)pyridin-4-yl)-6,7,8,9-tetrahydro-5H-benzo[7]annulen-5-yl)-3-(tert-butyl)-1,2,4-oxadiazole-5-carboxamide] | ≤ 1 nM | 500 to 10000 nM |
| Cc1cc(-c2ccnc(NC(=O)C3CC3(C)C)c2)ccc1CNC(=O)c1noc(C(C)(C)C)n1 (stereo not shown) [Compound 48, 5-(tert-butyl)-N-(4-(2-(2,2-dimethylcyclopropane-1-carboxamido)pyridin-4-yl)-2-methylbenzyl)-1,2,4-oxadiazole-3-carboxamide] | 1 to 10 nM | > 10000 nM |
| Cc1cc(-c2ccnc(NC(=O)C3CC3(F)F)c2)ccc1CNC(=O)c1noc(C(C)(C)C)n1 (stereo not shown) [Compound 49, 5-(tert-butyl)-N-(4-(2-(2,2-difluorocyclopropane-1-carboxamido)pyridin-4-yl)-2-methylbenzyl)-1,2,4-oxadiazole-3-carboxamide] | ≤ 1 nM | 500 to 10000 nM |
| CC(C)(C)c1noc(C(=O)N[C@@H]2CCCCc3cc(-c4ccnc(NC(=O)[C@@H]5C[C@H]5C#N)c4)ccc32)n1 [Compound 51, 3-(tert-butyl)-N-((R)-2-(2-((1R,2R)-2-cyanocyclopropane-1-carboxamido)pyridin-4-yl)-6,7,8,9-tetrahydro-5H-benzo[7]annulen-5-yl)-1,2,4-oxadiazole-5-carboxamide] | ≤ 1 nM | 100 to 500 nM |
| CC(C)(C)c1noc(C(=O)N[C@@H]2CCCCc3cc(-c4ccnc(NC(=O)[C@@H]5C[C@H]5C(F)(F)F)c4)ccc32)n1 [Compound 52, 3-(tert-butyl)-N-((R)-2-(2-((1R,2R)-2-(trifluoromethyl)cyclo-propane-1-carboxamido)pyridin-4-yl)-6,7,8,9-tetrahydro-5H-benzo[7]annulen-5-yl)-1,2,4-oxadiazole-5-carboxamide] | ≤ 1 nM | 500 to 10000 nM |
| CC(C)(C)c1nc(C(=O)N[C@H]2CCCOc3cc(-c4ccnc(NC(=O)C5CC5)c4)ccc32)no1 [Compound 53, (S)-5-(tert-butyl)-N-(8-(2-(cyclopropanecarboxamido)pyridin-4-yl)-2,3,4,5-tetrahydrobenzo[b]oxepin-5-yl)-1,2,4-oxadiazole-3-carboxamide] | 10 to 1000 nM | > 10000 nM |
| CC(C)(C)c1nc(C(=O)N[C@@H]2CCCOc3cc(-c4ccnc(NC(=O)C5CC5)c4)ccc32)no1 [Compound 54, (R)-5-(tert-butyl)-N-(8-(2-(cyclopropanecarboxamido)pyridin-4-yl)-2,3,4,5-tetrahydrobenzo[b]oxepin-5-yl)-1,2,4-oxadiazole-3-carboxamide] | ≤ 1 nM | 100 to 500 nM |
| CC(C)(C)c1noc(C(=O)NC2CCCOc3cc(-c4ccnc(NC(=O)C5CC5)c4)ccc32)n1 (stereo not shown) [Compound 55, 3-(tert-butyl)-N-(8-(2-(cyclopropanecarboxamido)pyridin-4-yl)-2,3,4,5-tetrahydrobenzo[b]oxepin-5-yl)-1,2,4-oxadiazole-5-carboxamide] | ≤ 1 nM | 500 to 10000 nM |
| CC(C)c1cc(-c2ccnc(NC(=O)C3CC3)c2)ccc1CNC(=O)c1noc(C(C)(C)C)n1 [Compound 56, 5-(tert-butyl)-N-(4-(2-(cyclopropanecarboxamido)pyridin-4-yl)-2-isopropylbenzyl)-1,2,4-oxadiazole-3-carboxamide] | 1 to 10 nM | > 10000 nM |
| Cc1c(CNC(=O)c2noc(C(C)(C)C)n2)ccc(-c2cc(NC(=O)C3CC3)ncc2F)c1F [Compound 57, 5-(tert-butyl)-N-(4-(2-(cyclopropanecarboxamido)-5-fluoropyridin-4-yl)-3-fluoro-2-methylbenzyl)-1,2,4-oxadiazole-3-carboxamide] | ≤ 1 nM | 500 to 10000 nM |
| CC(C)(C)c1noc(C(=O)N[C@@H]2CCCCc3cc(-c4ccnc(NC(=O)C5CC5(F)F)c4)ccc32)n1 (stereo partly drawn) [Compound 58, 3-(tert-butyl)-N-((5R)-2-(2-(2,2-difluorocyclopropane-1-carboxamido)pyridin-4-yl)-6,7,8,9-tetrahydro-5H-benzo[7]annulen-5-yl)-1,2,4-oxadiazole-5-carboxamide] | ≤ 1 nM | 500 to 10000 nM |
| CC1(c2nc(C(=O)NCc3ccc(-c4ccnc(NC(=O)C5CC5)c4)c(F)c3Cl)no2)CC1 [Compound 59, N-(2-chloro-4-(2-(cyclopropanecarboxamido)pyridin-4-yl)-3-fluorobenzyl)-5-(1-methylcyclopropyl)-1,2,4-oxadiazole-3-carboxamide] | ≤ 1 nM | 500 to 10000 nM |
| Cc1c(CNC(=O)c2noc(C(C)(C)C)n2)cc(F)c(-c2ccnc(NC(=O)C3CC3)c2)c1F [Compound 61, 5-(tert-butyl)-N-(4-(2-(cyclopropanecarboxamido)pyridin-4-yl)-3,5-difluoro-2-methylbenzyl)-1,2,4-oxadiazole-3-carboxamide] | ≤ 1 nM | 500 to 10000 nM |
| CC(C)(C)c1nc(C(=O)NC2CCCOc3cc(-c4ccnc(NC(=O)C5CC5)c4)ccc32)no1 (stereo not shown) [Compound 65, 5-(tert-butyl)-N-(8-(2-(cyclopropanecarboxamido)pyridin-4-yl)-2,3,4,5-tetrahydrobenzo[b]oxepin-5-yl)-1,2,4-oxadiazole-3-carboxamide] | ≤ 1 nM | 100 to 500 nM |
| CC(C)(C)c1nc(C(=O)N[C@@H]2CCCCc3cc(-c4ccnc(NC(=O)C5CC5)c4)ccc32)no1 [Compound 67, (R)-5-(tert-butyl)-N-(2-(2-(cyclopropanecarboxamido)pyridin-4-yl)-6,7,8,9-tetrahydro-5H-benzo[7]annulen-5-yl)-1,2,4-oxadiazole-3-carboxamide] | ≤ 1 nM | ≤ 100 nM |
| CC(C)(C)c1nc(C(=O)N[C@@H]2CCCCc3cc(-c4ccnc(NC(=O)C5CC5)c4)ccc32)co1 [Compound 68, (R)-2-(tert-butyl)-N-(2-(2-(cyclopropanecarboxamido)pyridin-4-yl)-6,7,8,9-tetrahydro-5H-benzo[7]annulen-5-yl)oxazole-4-carboxamide] | ≤ 1 nM | 500 to 10000 nM |
| CC(C)(C)c1noc(C(=O)NCc2ccc(-c3ccnc(NC(=O)C4CC4)c3)c(F)c2C(F)(F)F)n1 [Compound 69, 3-(tert-butyl)-N-(4-(2-(cyclopropanecarboxamido)pyridin-4-yl)-3-fluoro-2-(trifluoromethyl)benzyl)-1,2,4-oxadiazole-5-carboxamide] | ≤ 1 nM | 100 to 500 nM |
| C[C@@H](NC(=O)c1nc(C(C)(C)C)no1)c1cc(F)c(-c2ccnc(NC(=O)C3CC3)c2)cc1Cl [Compound 70, (R)-3-(tert-butyl)-N-(1-(2-chloro-4-(2-(cyclopropanecarboxamido)pyridin-4-yl)-5-fluorophenyl)ethyl)-1,2,4-oxadiazole-5-carboxamide] | ≤ 1 nM | 500 to 10000 nM |
| Cc1c([C@@H](C)NC(=O)c2noc(C(C)(C)C)n2)ccc(-c2ccnc(NC(=O)C3CC3)c2)c1F [Compound 71, (R)-5-(tert-butyl)-N-(1-(4-(2-(cyclopropanecarboxamido)pyridin-4-yl)-3-fluoro-2-methyphenyl)ethyl)-1,2,4-oxadiazole-3-carboxamide] | ≤ 1 nM | 500 to 10000 nM |
| CC(C)(C)c1nc(C(=O)NCc2ccc(-c3ccnc(NC(=O)C4CC4)c3)cc2C(C)(C)C)no1 [Compound 72] | 1 to 10 nM | > 10000 nM |

From patent US12240838B2, “Inhibiting agents for Bruton's tyrosine kinase” (BIOGEN MA INC., priority 2019, dated 2025)
